Among the data in EP4653437A2 (Innovo Therapeutics Inc., priority 2023, dated 2024) are fold induction and IC50 values, retold here.

For one assay, the system named is A549 cells. Briefly: Measurement of PGE2-increasing activity in A549 cells (IL-1β stimulated, PGE2 quantified in supernatant). Type of assay: cell-based. Conditions: Homo sapiens, 24 h; concentration of 1 µM of each compound; IL-1β treated A549 cells; read-out: Increased PGE2 production in A549 cells. The method, boiled down:
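A549 cells grown 24 h in F12K with 10% FBS, then switched to serum-free medium with or without IL-1β and compound (0.1% DMSO final). After 24 h at 37 °C, 5% CO2, supernatant PGE2 quantified by immunoassay.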

In the next assay the target is T1, human 15-PGDH (Homo sapiens, UniProt P15428).
T1 construct: purchased R&D System 5660-DH
T1 sequence (P15428 1-266): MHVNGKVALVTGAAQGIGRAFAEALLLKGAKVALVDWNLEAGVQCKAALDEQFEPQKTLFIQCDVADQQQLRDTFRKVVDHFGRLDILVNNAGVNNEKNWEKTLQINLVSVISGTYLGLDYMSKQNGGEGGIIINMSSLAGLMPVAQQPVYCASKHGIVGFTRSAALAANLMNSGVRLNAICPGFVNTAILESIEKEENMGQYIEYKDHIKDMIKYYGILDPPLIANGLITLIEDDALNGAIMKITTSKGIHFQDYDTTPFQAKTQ
Briefly: Evaluation of 15-PGDH inhibitory activity (fluorescence enzyme assay, NAD+/PGE2). It counts as biochemical. As to conditions: human 15-PGDH enzyme, fluorescence Vmax. As for the experimental part:
15-PGDH inhibition activity of Example compounds was measured as follows. 6.7 ng of human 15-PGDH (R&D System# 5660-DH) enzyme (10 µL) was added to a black 96 well plate, 60 µL of buffer (50 mM Tris-HCl, pH 7.5, 0.01% Tween 20) was added, and 10 µL of 200 µM β-Nicotinamide adenine dinucleotide sodium salt (Sigma, Cat# N0632-5G) was added. 10 µL of (10x) compound solution in DMSO was added and reacted for 10 minutes at room temperature.

As usually defined, the IC50 is the concentration needed to halve the response being measured. A lower IC50 goes with greater potency.

In the case of `Cn1nc(N)c2ccc(-c3cccc4c(C(=O)N5CCCCC5)cnn34)cc21` [Example 310, [7-(3-amino-1-methyl-indazol-6-yl)pyrazolo[1,5-a]pyridin-3-yl]-(1-piperidyl)methanone], the fold induction at 1 µM in the assay on A549 cells was > 1.5. The IC50 against human 15-PGDH is ≤ 100 nM.
Regarding `Cc1noc(C)c1-c1ncc(-c2cccc3c(C(=O)N4CCCCC4)cnn23)cc1F` [Example 381, [7-[6-(3,5-dimethylisoxazol-4-yl)-5-fluoro-3-pyridyl]pyrazolo[1,5-a]pyridin-3-yl]-(1-piperidyl)methanone], the fold induction at 1 µM in the assay with A549 cells is > 1.5. The IC50 on human 15-PGDH was ≤ 100 nM.
In the same order, the values of `O=C(c1cnn2c(-c3cnc(-c4nnc(C(F)F)[s+]4[O-])nc3)cccc12)N1CCCCC1` (centres unmarked) [Example 404, [7-[2-[5-(difluoromethyl)-1-oxo-1,3,4-thiadiazol-2-yl]pyrimidin-5-yl]pyrazolo[1,5-a]pyridin-3-yl]-(1-piperidyl)methanone] are > 1.5 and ≤ 100 nM.
`O=C1NCc2cc(-c3cccc4c(C(=O)N5CCCCC5)cnn34)ccc21` [Example 143, 5-(3-(piperidine-1-carbonyl)pyrazolo[1,5-a]pyridin-7-yl)isoindolin-1-one]: in the assay with A549 cells, the fold induction at 1 µM was > 1.5. In addition, the half-maximal inhibitory concentration (IC50) on human 15-PGDH is ≤ 100 nM.
In the same order, the values of `O=C(Cc1cccnc1)Nc1ncc(-c2cccc3c(C(=O)N4CCCCC4)cnn23)cc1Cl` [Example 311, N-(3-chloro-5-(3-(piperidine-1-carbonyl)pyrazolo[1,5-a]pyridin-7-yl)pyridin-2-yl)-2-(pyridin-3-yl)acetamide] are > 1.5 and ≤ 100 nM.
In the same order, the values of `NC(=O)c1ncc(-c2ccc(-c3cccc4c(C(=O)N5CCCCC5)cnn34)cc2)cn1` [Example 307, 5-[4-[3-(piperidine-1-carbonyl)pyrazolo[1,5-a]pyridin-7-yl]phenyl]pyrimidine-2-carboxamide] are > 1.5 and ≤ 100 nM.
For the compound `O=C(c1cnn2c(-c3ccc(N4CC(CO)C4)nc3)cccc12)N1CCCCC1` [Example 221, (7-(6-(3-(hydroxymethyl)azetidin-1-yl)pyridin-3-yl)pyrazolo[1,5-a]pyridin-3-yl)(piperidin-1-yl)methanone], in the assay with A549 cells, the fold induction at 1 µM is > 1.5. Further, the IC50 on human 15-PGDH was ≤ 100 nM.
In the case of `Cc1noc(C)c1-c1ccc(-c2cccc3c(C(=O)N4CCCCC4)cnn23)cc1` [Example 324, [7-[4-(3,5-dimethylisoxazol-4-yl)phenyl]pyrazolo[1,5-a]pyridin-3-yl]-(1-piperidyl)methanone], the fold induction at 1 µM in the assay on A549 cells is > 1.5. Moreover, on human 15-PGDH, the IC50 is ≤ 100 nM.
As to `CN1CCC(NC(=O)c2cccc(-c3cccc4c(C(=O)N5CCCCC5)cnn34)c2)CC1` [Example 33, N-(1-methylpiperidin-4-yl)-3-(3-(piperidine-1-carbonyl)pyrazolo[1,5-a]pyridin-7-yl)benzamide], the fold induction at 1 µM with A549 cells is > 1.5. At human 15-PGDH, the IC50 was ≤ 100 nM.
For the compound `Cn1cnc(Nc2cccc3c(C(=O)N4CCCCC4)cnn23)cc1=O` [Example 236, 3-methyl-6-[[3-(piperidine-1-carbonyl)pyrazolo[1,5-a]pyridin-7-yl]amino]pyrimidin-4-one], in the assay on A549 cells, the fold induction at 1 µM is > 1.5. For the same compound, the IC50 against human 15-PGDH was ≤ 100 nM.
In the same order, the values of `O=C(Nc1cccc(-c2cccc3c(C(=O)N4CCCCC4)cnn23)c1)C1CCCCC1` [Example 96, N-(3-(3-(piperidine-1-carbonyl)pyrazolo[1,5-a]pyridin-7-yl)phenyl)cyclohexanecarboxamide] are < 1.5 and ≤ 100 nM.
As for `N#CCCNC(=O)c1ccc(-c2cccc3c(C(=O)N4CCCCC4)cnn23)cc1` [Example 69, N-(2-cyanoethyl)-4-(3-(piperidine-1-carbonyl)pyrazolo[1,5-a]pyridin-7-yl)benzamide], the fold induction at 1 µM with A549 cells was > 1.5. For the same compound, the IC50 on human 15-PGDH was ≤ 100 nM.
`COC(=O)C1CN(c2ccc(-c3cccc4c(C(=O)N5CCCCC5)cnn34)cn2)C1` [Example 219, methyl 1-(5-(3-(piperidine-1-carbonyl)pyrazolo[1,5-a]pyridin-7-yl)pyridin-2-yl)azetidine-3-carboxylate]: the fold induction at 1 µM in the assay with A549 cells is > 1.5. The IC50 against human 15-PGDH is ≤ 100 nM.
For `N#Cc1ccc(Nc2cccc3c(C(=O)N4CCCCC4)cnn23)cc1` [Example 146, 4-((3-(piperidine-1-carbonyl)pyrazolo[1,5-a]pyridin-7-yl)amino)benzonitrile], the fold induction at 1 µM in the assay with A549 cells is > 1.5. For the same compound, the IC50 at human 15-PGDH was ≤ 100 nM.
The like results for `O=C(c1cnn2c(-c3cccc(-c4noc(=O)[nH]4)c3)cccc12)N1CCCCC1` [Example 115, 3-(3-(3-(piperidine-1-carbonyl)pyrazolo[1,5-a]pyridin-7-yl)phenyl)-1,2,4-oxadiazol-5(4H)-one] were, in that order, > 1.5 and ≤ 100 nM.
The like results for `CN1Cc2ccc(-c3cccc4c(C(=O)N5CCC(F)CC5)cnn34)cc2C1=O` [Example 231, 6-(3-(4-fluoropiperidine-1-carbonyl)pyrazolo[1,5-a]pyridin-7-yl)-2-methylisoindolin-1-one] were, in that order, > 1.5 and ≤ 100 nM.
For the compound `Cn1nc2cc(-c3cccc4c(C(=O)N5CCCCC5)cnn34)ccn2c1=O` [Example 252, 2-methyl-7-(3-(piperidine-1-carbonyl)pyrazolo[1,5-a]pyridin-7-yl)-[1,2,4]triazolo[4,3-a]pyridin-3(2H)-one], in the assay on A549 cells, the fold induction at 1 µM is > 1.5. In addition, the IC50 on human 15-PGDH was ≤ 100 nM.
For the compound `O=C(Cc1cncc(F)c1)Nc1cncc(-c2cccc3c(C(=O)N4CCCCC4)cnn23)c1` [Example 402, 2-(5-fluoropyridin-3-yl)-N-(5-(3-(piperidine-1-carbonyl)pyrazolo[1,5-a]pyridin-7-yl)pyridin-3-yl)acetamide], the fold induction at 1 µM with A549 cells was > 1.5. In addition, the IC50 against human 15-PGDH was ≤ 100 nM.
In the same order, the values of `O=C(c1cnn2c(Nc3cc(=O)[nH]cn3)cccc12)N1CCCCC1` [Example 235, 4-[[3-(piperidine-1-carbonyl)pyrazolo[1,5-a]pyridin-7-yl]amino]-1H-pyrimidin-6-one] are > 1.5 and ≤ 100 nM.
Take `COCCNC(=O)c1cccc(-c2cccc3c(C(=O)N4CCCCC4)cnn23)c1` [Example 30, N-(2-methoxyethyl)-3-(3-(piperidine-1-carbonyl)pyrazolo[1,5-a]pyridin-7-yl)benzamide]: the fold induction at 1 µM in the assay on A549 cells was > 1.5. Further, the IC50 against human 15-PGDH is ≤ 100 nM.
In the same order, the values of `Nc1cnn(-c2ccc(-c3cccc4c(C(=O)N5CCCCC5)cnn34)cn2)c1` [Example 344, (7-(6-(4-amino-1H-pyrazol-1-yl)pyridin-3-yl)pyrazolo[1,5-a]pyridin-3-yl)(piperidin-1-yl)methanone] are > 1.5 and ≤ 100 nM.
In the case of `O=C(Nc1ccnnc1)c1cncc(-c2cccc3c(C(=O)N4CCCCC4)cnn23)c1` [Example 56, 5-(3-(piperidine-1-carbonyl)pyrazolo[1,5-a]pyridin-7-yl)-N-(pyridazin-4-yl)nicotinamide], the fold induction at 1 µM in the assay with A549 cells was > 1.5. On human 15-PGDH, the IC50 was ≤ 100 nM.
In the same order, the values of `O=C(c1cncc(-c2cccc3c(C(=O)N4CCCCC4)cnn23)c1)N1CCNCC1` [Example 48, piperazin-1-yl(5-(3-(piperidine-1-carbonyl)pyrazolo[1,5-a]pyridin-7-yl)pyridin-3-yl)methanone] are < 1.5 and ≤ 100 nM.
The like results for `O=C(NCC1CC1)c1cccc(-c2cccc3c(C(=O)N4CCCCC4)cnn23)c1` [Example 32, N-(cyclopropylmethyl)-3-(3-(piperidine-1-carbonyl)pyrazolo[1,5-a]pyridin-7-yl)benzamide] were, in that order, < 1.5 and ≤ 100 nM.
In the case of `Cc1nc(-c2c(F)cc(-c3cccc4c(C(=O)N5CCCCC5)cnn34)cc2F)no1` [Example 328, (7-(3,5-difluoro-4-(5-methyl-1,2,4-oxadiazol-3-yl)phenyl)pyrazolo[1,5-a]pyridin-3-yl)(piperidin-1-yl)methanone], in the assay with A549 cells, the fold induction at 1 µM is > 1.5. Moreover, on human 15-PGDH, the IC50 was ≤ 100 nM.
The like results for `O=C(c1cnn2c(-c3ccc4c(=O)[nH]ccc4c3)cccc12)N1CCCCC1` [Example 138, 6-(3-(piperidine-1-carbonyl)pyrazolo[1,5-a]pyridin-7-yl)isoquinolin-1(2H)-one] were, in that order, > 1.5 and ≤ 100 nM.
For `CN(C)C1CN(c2cc(-c3cccc4c(C(=O)N5CCCCC5)cnn34)cc(-c3cncc(F)c3)n2)C1` [Example 375, (7-(6-(3-(dimethylamino)azetidin-1-yl)-5'-fluoro-[2,3'-bipyridin]-4-yl)pyrazolo[1,5-a]pyridin-3-yl)(piperidin-1-yl)methanone], in the assay with A549 cells, the fold induction at 1 µM is > 1.5. Further, the IC50 against human 15-PGDH was ≤ 100 nM.
The like results for `O=C(c1cnn2c(NCCc3ccc(Cl)cc3)cccc12)N1CCCCC1` [Example 242, [7-[2-(4-chlorophenyl)ethylamino]pyrazolo[1,5-a]pyridin-3-yl]-(1-piperidyl)methanone] were, in that order, < 1.5 and ≤ 100 nM.
